For data set [1] the following is noted: general statement, not tested in Example 7; cited from earlier work.
Data set [2] in a line: Dimethylnitrosamine formation in treated and untreated fried bacon, thermal energy analysis (TEA). The conditions noted are these: duplicate. Here is the method:
(§1) Several base pickle solutions were prepared in tap water using the following proportions of ingredients: 2.0% sodium tripolyphosphate; 2.5% sucrose, 0%, 0.20% or 0.55% sodium erythorbate; 0.12% or 0.20% sodium nitrite; and 17.0% sodium chloride. Each ingredient was added to the water in the order given and completely dissolved before adding the next ingredient. The desired amount of ascorbyl or erythorbyl laurate was added to selected base solutions as follows. A dispersion or ascorbyl or erythorbyl laurate and Tween 20 was prepared by slurrying 2 parts of Tween 20 and 5 parts of ascorbyl or erythorbyl laurate, hydrating the slurry with a small amount of the base pickle solution and vigorously agitating the hydrated slurry for 10 min to break up the large agglomerates that formed. […] The resultant mixture was homogenized 2 times at 1000 psi in a single-stage homogenizer to give the final pickle solution. The pickle solution was chilled to about 40° F. immediately after preparation and used to prepare the bacon on the day of preparation. Duplicate pork bellies of about 10 lbs weight were stitch-pumped using each of the various concentrations of control or laurate treated cooled, agitated pickle solutions. […] The combined bacon slices from each belly were analyzed for dimethylnitrosamine and nitrosopyrrolidine using standard procedures and a TEA analyzer.

Data set [3] in a line: Nitrosopyrrolidine formation in treated and untreated fried bacon, thermal energy analysis (TEA). The conditions noted are these: for Level of nitrosopyrrolidine (NPy) detected in fried bacon: duplicate; for Reduction of nitrosopyrrolidine relative to untreated fried bacon: treated vs untreated fried bacon; for Level of reduction of nitrosopyrrolidine compared with tocopherol: vs positive control 500 ppm tocopherol. As for the experimental part:
as §1

Data set [4] in a line: Equilibrium oil-water solubility and phase distribution coefficient. The conditions noted are these: for Total solubility (in words): oil and water; for Total Solubility: oil plus water phase; for solubility: vegetable oil/water, stirred overnight. Format: physicochemical. As for the experimental part: The oil and water layers were separated by centrifugation at 10,000 rpm for 30 min. Any undissolved ester was removed by gravity filtration through fluted filter paper. The oil and water layers were assayed for ester using 0.01N I2 solution.

Data set [5] in a line: Mayonnaise storage test: color, odor and freshness. The conditions noted are these: three months at room temperature; 200 ppm in the vegetable oil. Here is the method:
In an electric beater, 20 g of egg yolks, 1.2 g of dry mustard, 3.0 g of salt, and 10 ml of vinegar are combined and well beaten; 144 g of vegetable oil (such as cottonseed, corn, or sesame) which contains 200 ppm (0.02%) of ascorbyl or erythorbyl laurate is then added with constant whipping, and beating is continued until there is complete emulsification and no free oil remains. An additional 10 ml of vinegar is added and the beating is continued for a few minutes longer until the emulsion is smooth and of a semi-solid consistency. The resultant mayonnaise is packed in jars and capped.
After three months of storage at room temperature, the color, odor and freshness of the treated mayonnaise are evaluated against similarly stored, untreated mayonnaise and against freshly prepared mayonnaise.

Data set [6] is described as follows: Emollient lotion accelerated stability test. The conditions noted are these: accelerated stability tests of Example 3. As for the experimental part: (§2) Using an accelerated stability test at 63° C. this hand creme is compared to a similarly prepared hand creme containing no erythorbyl laurate. After one month of storage at 63° C., the color, appearance and odor of both hand cremes are evaluated against freshly prepared control hand creme.
An oil phase consisting of 70 g of mineral oil, 30 g of lanolin, and 30 g of glycerol monostearate and heated to 75° C. is added to a water phase consisting of 15 g triethanolamine, 200 mg of erythorbyl caprate, and 849 ml of water, also at 75° C. After thoroughly mixing the oil and water phases at 75° C., the emulsion is cooled to 45° C. and perfumed. After cooling to room temperature the emulsion is homogenized to give the emollient lotion.
Using the accelerated stability tests of Example 3 the treated emollient lotion is compared to a similarly prepared, untreated emollient lotion.

Data set [7] is described as follows: Hand creme N-nitrosamine analysis by TEA. Here is the method: (§3) A hand creme is prepared by mixing a water phase at 70° C. with an oil phase at 75° C. The oil phase consists of 2.0 g of isopropyl myristate, 2.0 g of cetyl alcohol, 15.0 g of stearic acid, 2.0 g of lanolin, and 20.0 mg of erythorbyl laurate. The water phase consists of 71.6 ml of deionized water, 3.0 g of glycerol, 3.0 g of 70% sorbitol, and 1.4 g of triethanolamine. After thoroughly mixing the oil and water phases, the emulsion is cooled to 45° C. at which time the appropriate perfumes are added and mixed thoroughly into the emulsion. After cooling the emulsion to room temperature, the resultant hand creme is placed in an opaque glass jar and sealed.
Portions of the hand cremes described above may be analyzed for N-nitrosamines using a Thermal Energy Analyzer (TEA) and standard procedures.

Data set [8] can be described thus: Bologna storage test: panel comparison of color, odor and flavor. The conditions noted are these: stored at 36°-40° F. for 1 month. As for the experimental part: (§4) In a large mixer there are combined 60 lb of whole carcass beef which has been ground through a 1/4" plate, 40 lb of regular pork trimmings which has been ground through a 3/8" plate, 2 lb 12 oz of salt, 8 oz of sugar, 4 oz of ground white pepper, 1 oz of coriander, 1 oz of mace, 0.85 oz of sodium erythorbate, 0.25 oz of sodium nitrite, and 1.00 oz of erythorbyl laurate. 25 lb of chopped ice is added and the mixture is cycled through a mechanical emulsifier until the desired texture is attained. The finished emulsion is transferred to a casing stuffer and stuffed into a No. 8 by 36 in. fibrous casing. The resultant product is ready for smoking, which will require approximately 8 hrs. The product is placed in a smokehouse at 130° F. with the damper open and cooked for 30 min. The damper is then closed and the temperature is raised 10° F./hr to 170° F. The heating is continued at 170° F. until an internal temperature of 156° F. is reached. The resultant bologna is cold showered with tap water for 35 to 40 min, held at room temperature for 30 min, and placed in a cooler at 36°-40° F. This procedure will produce bolognas of approximately 18 lb with a 15 in. circumference.
The treated bologna is sliced, wrapped and stored at 36°-40° F. for 1 month and its color, odor and flavor are compared to a similarly prepared and stored, untreated bologna.

Data set [9] can be described thus: Bologna N-nitrosamine analysis by TEA. As for the experimental part: as §4
The two bolognas may be analyzed for N-nitrosamines using standard procedures and a TEA analyzer.

Data set [10] in a line: Corn flakes storage test: rancid and painty taste. The conditions noted are these: six months at room temperature; 0.005% by weight, aqueous spray. As for the experimental part:
In a cylindrical pressure cooker are placed about 1700 pounds of degermed and debranned, No. 4-5 milled, hybrid yellow corn and 36 gallons of flavoring syrup composed of sugar, malt, salt and water. The mixture is cooked at 18 psi steam pressure for about 11/2 hours to produce a moisture content of about 33%. Uniform translucency of the kernels will indicate an adequate cook. The kernels are crushed and dried to about 21% moisture. The dried, crushed grits are then heat tempered at 180° F. for 16 hours in order to evenly distribute the water content. The cooked, dried grits are flaked using a conventional flake roller and are passed directly to the toasting oven where they are heated at 575° F. for 50 seconds to produce the finished flakes of less than 3% moisture content. As they cool, they are treated with an aqueous spray of B-complex vitamins and 0.005% by weight erythorbyl laurate relative to the final corn flakes weight. The treated, finished flakes are placed in paper boxes with waxed paper liners.
Treated and untreated flakes are stored six months at room temperature and then compared.

A short description of data set [11]: Hand creme accelerated stability test at 63° C., color, appearance and odor by test panel. The conditions noted are these: one month at 63° C. As for the experimental part:
as §3, §2

Where [12] appears, read: 120 ppm NaNO2, 200 ppm NaEr only (null control).
Setting [13] is: 200 ppm NaNO2, 200 ppm NaEr only.
The mark [14] stands for this setting: organic solvent or mixture, read-out: Oil Phase Solubility.
Setting [15] is: read-out: Water Phase Solubility.
[16] abbreviates: 120 ppm NaNO2, 550 ppm NaEr + 500 ppm AL, listed as AL.
[17] abbreviates: 120 ppm NaNO2, 550 ppm NaEr + 500 ppm EL.

Values after ≈ are worked out from the molar mass of the structure shown. Values joined by “and” are separate entries in the source; they are usually repeats but may differ in a detail not shown here. Equal entries are not always repeated. Where two headings read alike, the source gives them in different places.

`COc1ccc(O)c(C(C)(C)C)c1` [BHA]: in data set [1], the “Distribution coefficient (oil/water) (in words)” value was “essentially infinity” and the “Water solubility (in words)” value is listed as “water-insoluble”.

Consider `Cc1cc(C(C)(C)C)c(O)c(C(C)(C)C)c1` [BHT], for which, in data set [1], the “Distribution coefficient (oil/water) (in words)” value was “essentially infinity” and the “Water solubility (in words)” value is “water-insoluble”.

On to `O=C1O[C@H]([C@H](O)CO)C(O)=C1O` [NaEr, sodium erythorbate, reference compound], for which the “Level of dimethylnitrosamine (DMNA) detected in fried bacon” value (“Level of dimethylnitrosamine” for short) is 1.0 ppb and 1.2 ppb in [2] (setting [12]); “trace (Trace means less than 1 ppb)” in [2] (120 ppm NaNO2, 550 ppm NaEr only (null control)); 2.1 ppb and 1.6 ppb in data set [2] (setting [13]). Moreover, the “Level of nitrosopyrrolidine (NPy) detected in fried bacon” value (shortened to “Level of nitrosopyrrolidine”) in data set [3] (setting [12]) was 4.2 ppb and 3.3 ppb; in [3] (setting [13]) it was 3.6 ppb and 3.9 ppb.

Take `CC(C)(C)c1cc(O)ccc1O` [TBHQ]: in [1], the “Distribution coefficient (oil/water) (in words)” value was “essentially infinity” and the “Water solubility (in words)” value is reported as “water-insoluble”.

By solubility is commonly meant how much of the substance goes into solution per volume. As to `CCCCCCCCCC(=O)OC[C@H](O)[C@H]1OC(=O)C(O)=C1O` [ascorbyl caprate, reference compound], in data set [4] (Example 7), the “Total solubility (in words)” value was “high total solubility”. Also, in data set [4], the “Total Solubility” value was determined as 5400 ppm. Besides, the “Distribution coefficient (in words)” value in data set [4] (oil/water, Example 7) is “very low distribution coefficient”. The solubility in data set [4] (setting [14]) came to 100 µg/mL (≈ 303 µM); in data set [4] (setting [15]), 5300 µg/mL (≈ 16000 µM).

With `CCCCCCCCCCCC(=O)OC[C@H](O)[C@H]1OC(=O)C(O)=C1O` [ascorbyl laurate], the “Objectionable change in color, odor and freshness of mayonnaise” value in data set [5] is recorded as “substantially less objectionable change”. Besides, the “Level of dimethylnitrosamine” value was 2.7 ppb and 1.7 ppb in data set [2] (setting [16]); 1.6 ppb and 2.6 ppb in data set [2] (200 ppm NaNO2, 550 ppm NaEr + 500 ppm AL, listed as AL). Further, the “Level of nitrosopyrrolidine” value in [3] (setting [16]) was 1.4 ppb and 2.4 ppb. Besides, the “Reduction of nitrosopyrrolidine relative to untreated fried bacon” value in [3] is recorded as “approximately four”. Besides, the “Level of reduction of nitrosopyrrolidine compared with tocopherol” value in data set [3] is recorded as “about the same”. In data set [4], the “Total Solubility” value came to 390 ppm. Besides, the results for the solubility in data set [4] (setting [14]) and in data set [4] (setting [15]) were 250 µg/mL (≈ 697 µM) and 140 µg/mL (≈ 391 µM), respectively.

As to `CCCCCCCCCCCCCCCC(=O)OC[C@H](O)[C@H]1OC(=O)C(O)=C1O` [ascorbyl palmitate, reference compound], the “Total solubility (in words)” value in [4] (Example 7) was “low total solubility”. Further, the “Total Solubility” value in [4] came out at 175 ppm. The solubility in [4] (setting [14]) worked out at 110 µg/mL (≈ 265 µM); in data set [4] (setting [15]), 65 µg/mL (≈ 157 µM).

Take `CCCCCCCCCC(=O)OC[C@@H](O)[C@H]1OC(=O)C(O)=C1O` [erythorbyl caprate]: the “Degradation relative to untreated emollient lotion” value in data set [6] is recorded as “substantially less degradation”. In addition, the “Total Solubility” value in data set [4] is given as 4000 ppm. Moreover, the solubility turned out to be 1500 µg/mL (≈ 4540 µM) in data set [4] (setting [14]) and 2500 µg/mL (≈ 7570 µM) in data set [4] (setting [15]).

Regarding `CCCCCCCCCCCC(=O)OC[C@@H](O)[C@H]1OC(=O)C(O)=C1O` [erythorbyl laurate], the “Objectionable change in color, odor and freshness of mayonnaise” value in data set [5] is “substantially less objectionable change”. Also, the “Levels of N-nitrosamines relative to untreated hand creme” value in [7] was “substantially reduced levels of N-nitrosamines”. For the same compound, the “Level of dimethylnitrosamine” value is 1.2 ppb and 1.7 ppb in data set [2] (120 ppm NaNO2, 550 ppm NaEr + 250 ppm EL, listed as EL); “trace (Trace means less than 1 ppb)” in data set [2] (setting [17]); 1.2 ppb and 1.0 ppb in data set [2] (120 ppm NaNO2, 995 ppm EL, no NaEr, listed as EL); 2.0 ppb in data set [2] (200 ppm NaNO2, 550 ppm NaEr + 250 ppm EL); 1.3 ppb and 1.9 ppb in data set [2] (200 ppm NaNO2, 550 ppm NaEr + 500 ppm EL, listed as EL); 2.2 ppb and 1.7 ppb in data set [2] (200 ppm NaNO2, 995 ppm EL, no NaEr, listed as EL). The “Objectionable change in color, odor and flavor relative to untreated bologna” value in [8] was “substantially less objectionable change”. The “Levels of N-nitrosamines relative to untreated bologna” value in data set [9] is given as “substantially reduced levels of N-nitrosamines”. The “Level of nitrosopyrrolidine” value in [3] (setting [17]) is recorded as “trace (Trace means less than 1 ppb)”; in [3] (200 ppm NaNO2, 550 ppm NaEr + 500 ppm EL) it was “trace (Trace means less than 1 ppb)”. Besides, the “Reduction of nitrosopyrrolidine relative to untreated fried bacon” value in data set [3] was “approximately four”. Besides, the “Level of reduction of nitrosopyrrolidine compared with tocopherol” value in [3] was “about the same”. Also, in data set [10], the “Rancid and painty taste relative to untreated flakes” value is “insignificant rancid and painty taste”. In addition, the “Total Solubility” value in [4] was 700 ppm. Moreover, the solubility was 450 µg/mL (≈ 1260 µM) in [4] (setting [14]) and 350 µg/mL (≈ 976 µM) in data set [4] (setting [15]). Moreover, the “Objectionable change in color, appearance and odor relative to untreated hand creme” value in [11] is “substantially less objectionable change”.

On to tocopherol [reference compound], for which the “Level of nitrosopyrrolidine” value in data set [3] (120 ppm NaNO2, 550 ppm NaEr + 500 ppm TOC (positive control)) is on record as “none detected (Limit of detection is 0.2 ppb)”. In addition, the “Distribution coefficient (oil/water) (in words)” value in data set [1] was “essentially infinity”.
